{
  "source": "patent EP1183044B1",
  "about": "“ADJUVANT COMBINATIONS FOR IMMUNIZATION AND VACCINES” (priority 1999, dated 2000)",
  "tested_on": "IFN-γ",
  "format": "in vivo, C57BL/6 mice",
  "conditions": "72 h supernatant of blood cell cultures one week after last booster; ESAT-6 10 µg/dose, three vaccinations",
  "data": [
    {"smiles": "CCCCCCCCCCCCCCCCCC[N+](C)(C)CCCCCCCCCCCCCCCCCC.[Br-]", "note": "[DDA, dimethyl dioctadecyl ammonium bromide]", "values": [
      {"measurement": "ESAT-6 specific recall response, IFN-γ, Expt.I", "result": "<50", "unit": "pg/mL"}
    ]}
  ]
}
